One assay addresses JAK2 (Homo sapiens, UniProt O60674). The assay is described as follows: JAK2 Inhibition Assay. Format: biochemical. The following applies: JAK-2 enzyme, 15 μM poly(Glu)4Tyr, 12 μM ATP. The protocol: (§1) Compounds were screened for their ability to inhibit JAK3 using the assay shown below. Reactions were carried out in a kinase buffer containing 100 mM HEPES (pH 7.4), 1 mM DTT, 10 mM MgCl2, 25 mM NaCl, and 0.01% BSA. Substrate concentrations in the assay were 5 μM ATP (200 uCi/μmole ATP) and 1 μM poly(Glu)4Tyr. Reactions were carried out 25° C. and 1 nM JAK3.
(§2) To each well of a 96 well polycarbonate plate was added 1.5 μl of a candidate JAK3 inhibitor along with 50 μl of kinase buffer containing 2 μM poly(Glu)4Tyr and 10 μM ATP. This was then mixed and 50 μl of kinase buffer containing 2 nM JAK3 enzyme was added to start the reaction. After 20 minutes at room temperature (25° C.), the reaction was stopped with 50 μl of 20% trichloroacetic acid (TCA) that also contained 0.4 mM ATP. The entire contents of each well were then transferred to a 96 well glass fiber filter plate using a TomTek Cell Harvester. After washing, 60 μl of scintillation fluid was added and ^33P incorporation detected on a Perkin Elmer TopCount.
The assays were as described above in Example 36 except that JAK-2 enzyme was used, the final poly(Glu)4Tyr concentration was 15 μM, and final ATP concentration was 12 μM.

A further assay concerns the target T1, JAK3 (Homo sapiens, UniProt P52333).
T1 sequence (P52333 1-1124): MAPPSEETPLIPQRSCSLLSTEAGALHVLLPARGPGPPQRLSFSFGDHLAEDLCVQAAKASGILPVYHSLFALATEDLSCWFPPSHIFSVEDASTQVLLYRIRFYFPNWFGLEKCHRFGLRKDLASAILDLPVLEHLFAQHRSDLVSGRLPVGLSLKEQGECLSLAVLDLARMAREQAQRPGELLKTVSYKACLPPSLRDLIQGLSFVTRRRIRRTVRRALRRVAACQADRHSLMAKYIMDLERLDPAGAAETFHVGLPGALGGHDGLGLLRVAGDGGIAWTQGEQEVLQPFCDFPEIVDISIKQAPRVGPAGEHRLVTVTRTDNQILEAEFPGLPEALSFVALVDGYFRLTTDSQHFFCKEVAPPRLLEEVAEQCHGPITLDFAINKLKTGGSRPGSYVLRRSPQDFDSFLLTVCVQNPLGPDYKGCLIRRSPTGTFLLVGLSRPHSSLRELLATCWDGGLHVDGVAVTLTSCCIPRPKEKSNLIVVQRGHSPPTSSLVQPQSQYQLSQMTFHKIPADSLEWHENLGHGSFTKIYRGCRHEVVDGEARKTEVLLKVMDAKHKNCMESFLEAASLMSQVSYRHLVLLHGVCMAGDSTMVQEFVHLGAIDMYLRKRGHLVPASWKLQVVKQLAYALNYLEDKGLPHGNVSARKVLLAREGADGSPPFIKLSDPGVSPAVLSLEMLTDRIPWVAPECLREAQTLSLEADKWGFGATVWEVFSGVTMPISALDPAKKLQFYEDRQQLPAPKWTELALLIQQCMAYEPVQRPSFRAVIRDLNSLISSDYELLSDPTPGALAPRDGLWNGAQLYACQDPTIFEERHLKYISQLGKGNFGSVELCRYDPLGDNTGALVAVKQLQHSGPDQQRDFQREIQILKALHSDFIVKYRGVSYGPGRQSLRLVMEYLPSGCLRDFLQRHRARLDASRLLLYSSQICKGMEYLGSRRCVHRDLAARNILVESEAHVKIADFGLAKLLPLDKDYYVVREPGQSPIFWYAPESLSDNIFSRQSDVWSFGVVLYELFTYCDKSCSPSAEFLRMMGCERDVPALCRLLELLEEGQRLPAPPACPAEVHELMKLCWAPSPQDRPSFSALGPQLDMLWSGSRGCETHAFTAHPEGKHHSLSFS
Put plainly: JAK3 Inhibition Assay. Format: biochemical. The settings on record: 1 nM JAK3, 1 μM poly(Glu)4Tyr, 5 μM ATP, 25° C.; read-out: enzyme inhibition data (Ki) JAK3. As for the experimental part: as §1, §2

Sequence of JAK2 (O60674 whole entry): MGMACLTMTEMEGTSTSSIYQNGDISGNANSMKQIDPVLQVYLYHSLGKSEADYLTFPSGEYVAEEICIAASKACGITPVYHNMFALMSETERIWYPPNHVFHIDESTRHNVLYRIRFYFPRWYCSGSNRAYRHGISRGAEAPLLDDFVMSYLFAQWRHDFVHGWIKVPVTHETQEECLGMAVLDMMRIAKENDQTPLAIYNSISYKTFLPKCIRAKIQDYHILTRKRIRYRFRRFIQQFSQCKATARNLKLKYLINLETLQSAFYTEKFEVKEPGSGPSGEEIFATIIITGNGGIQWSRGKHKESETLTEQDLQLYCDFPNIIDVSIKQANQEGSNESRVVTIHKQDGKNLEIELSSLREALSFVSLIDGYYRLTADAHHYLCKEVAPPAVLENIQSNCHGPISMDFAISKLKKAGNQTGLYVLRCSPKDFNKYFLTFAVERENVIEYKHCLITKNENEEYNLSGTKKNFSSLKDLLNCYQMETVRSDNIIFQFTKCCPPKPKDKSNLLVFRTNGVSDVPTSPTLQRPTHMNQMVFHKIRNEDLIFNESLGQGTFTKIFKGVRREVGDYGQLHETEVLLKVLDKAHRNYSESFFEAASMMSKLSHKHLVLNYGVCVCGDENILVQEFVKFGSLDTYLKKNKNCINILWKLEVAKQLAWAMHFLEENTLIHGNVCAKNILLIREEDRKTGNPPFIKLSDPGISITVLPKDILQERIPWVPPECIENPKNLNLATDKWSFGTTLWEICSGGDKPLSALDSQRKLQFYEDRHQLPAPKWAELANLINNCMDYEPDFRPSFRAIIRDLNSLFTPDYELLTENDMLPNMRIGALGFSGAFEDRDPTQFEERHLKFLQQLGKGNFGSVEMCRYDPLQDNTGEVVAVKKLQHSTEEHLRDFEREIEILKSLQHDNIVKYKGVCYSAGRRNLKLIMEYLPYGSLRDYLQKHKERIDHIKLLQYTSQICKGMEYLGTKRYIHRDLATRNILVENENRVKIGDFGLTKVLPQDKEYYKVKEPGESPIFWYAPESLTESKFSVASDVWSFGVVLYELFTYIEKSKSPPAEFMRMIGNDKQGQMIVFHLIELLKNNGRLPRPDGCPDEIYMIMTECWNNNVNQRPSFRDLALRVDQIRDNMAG

Usually Ki stands for a dissociation constant, usually derived from enzyme kinetics or from competition with a known ligand. In the case of `CC(=O)N1[C@H](C)CN(c2cccc(-c3c[nH]c4ncncc34)n2)C[C@@H]1C` [Compound 1, 1-((2S,6R)-4-(6-(7H-pyrrolo[2,3-d]pyrimidin-5-yl)pyridin-2-yl)-2,6-dimethylpiperazin-1-yl)ethanone], the Ki on JAK2 and at JAK3 was below 500 nM each time.
With `CCOC(=O)c1cc(N[C@@H](C)C(=O)NCC(F)(F)F)nc(-c2c[nH]c3ncncc23)n1` [Compound 2], the figures for the Ki at JAK2 and at JAK3 were above 5000 nM and 500 to 5000 nM, respectively.
In the case of `C[C@H](Nc1cc(C(=O)O)nc(-c2c[nH]c3ncncc23)n1)C(=O)NCC(F)(F)F` [Compound 3, 6-((S)-1-(2,2,2-trifluoroethylcarbamoyl)ethylamino)-2-(7H-pyrrolo[2,3-d]pyrimidin-5-yl)pyrimidine-4-carboxylic acid], the figures for the Ki on JAK2 and on JAK3 were above 5000 nM and below 500 nM, respectively.
In the same order, the values of `C[C@H](Nc1cccc(-c2c[nH]c3ncncc23)n1)C(=O)NCC(F)(F)F` [Compound 4, (S)-2-(6-(7H-pyrrolo[2,3-d]pyrimidin-5-yl)pyridin-2-ylamino)-N-(2,2,2-trifluoroethyl)propanamide] are below 500 nM and below 500 nM.
In the same order, the values of `C[C@H](Nc1ccnc(-c2c[nH]c3ncncc23)n1)C(=O)NCC(F)(F)F` [Compound 5, (S)-2-(2-(7H-pyrrolo[2,3-d]pyrimidin-5-yl)pyrimidin-4-ylamino)-N-(2,2,2-trifluoroethyl)propanamide] are below 500 nM and below 500 nM.
The like results for `C[C@H](Nc1nc(-c2c[nH]c3ncncc23)ncc1F)C(=O)NCC(F)(F)F` [Compound 6, (S)-2-(5-fluoro-2-(7H-pyrrolo[2,3-d]pyrimidin-5-yl)pyrimidin-4-ylamino)-N-(2,2,2-trifluoroethyl)propanamide] were, in that order, below 500 nM and below 500 nM.
In the case of `CC1CCN(C(=O)c2cc(N[C@@H](C)C(=O)NCC(F)(F)F)nc(-c3c[nH]c4ncncc34)n2)CC1` [Compound 7], the Ki on JAK2 is 500 to 5000 nM; on JAK3, below 500 nM.
Regarding `C[C@H](Nc1cc(C(=O)N2CCC[C@H]2CO)nc(-c2c[nH]c3ncncc23)n1)C(=O)NCC(F)(F)F` [Compound 8], the Ki on JAK2 was 500 to 5000 nM; at JAK3, below 500 nM.
The like results for `C[C@H](Nc1cc(C(=O)N2CCCC2)nc(-c2c[nH]c3ncncc23)n1)C(=O)NCC(F)(F)F` [Compound 9] were, in that order, 500 to 5000 nM and below 500 nM.
In the same order, the values of `C[C@H](Nc1cc(OC2CCOC2)nc(-c2c[nH]c3ncncc23)n1)C(=O)NCC(F)(F)F` (stereo partly shown) [Compound 10] are above 5000 nM and 500 to 5000 nM.
In the same order, the values of `COC[C@H]1CCCN1C(=O)c1cc(N[C@@H](C)C(=O)NCC(F)(F)F)nc(-c2c[nH]c3ncncc23)n1` [Compound 11] are above 5000 nM and 500 to 5000 nM.
Take `C[C@H](Nc1cc(C(=O)N2CCOCC2)nc(-c2c[nH]c3ncncc23)n1)C(=O)NCC(F)(F)F` [Compound 12]: the results for the Ki at JAK2 and at JAK3 were 500 to 5000 nM and below 500 nM, respectively.
Turning to `C[C@H](Nc1cc(C(=O)N2CCC(O)CC2)nc(-c2c[nH]c3ncncc23)n1)C(=O)NCC(F)(F)F` [Compound 13], the Ki on JAK2 and on JAK3 was 500 to 5000 nM throughout.
As to `COCCNC(=O)c1cc(N[C@@H](C)C(=O)NCC(F)(F)F)nc(-c2c[nH]c3ncncc23)n1` [Compound 14], the Ki at JAK2 was 500 to 5000 nM; on JAK3, below 500 nM.
The like results for `C[C@H](Nc1cc(C(=O)N(C)CCO)nc(-c2c[nH]c3ncncc23)n1)C(=O)NCC(F)(F)F` [Compound 15] were, in that order, 500 to 5000 nM and 500 to 5000 nM.
Consider `CC(C)[C@H](C)NC(=O)c1cc(N[C@@H](C)C(=O)NCC(F)(F)F)nc(-c2c[nH]c3ncncc23)n1` [Compound 16], for which the Ki at JAK2 and on JAK3 was 500 to 5000 nM throughout.
`C[C@H](Nc1cc(C(=O)N(C)Cc2ccccc2)nc(-c2c[nH]c3ncncc23)n1)C(=O)NCC(F)(F)F` [Compound 17]: the Ki on JAK2 and at JAK3 was 500 to 5000 nM in each case.
